Several values for one entry are separate records, joined by “and”; a condition that tells them apart may be missing. Equal entries are not always repeated. Inconclusive results and toxic doses are left out.
Test system: BDF1 mice, P388 leukemia ip, median survival T/C
Assay: NCI In Vivo Anticancer Drug Screen. Data for tumor model P388 Leukemia (intraperitoneal) in B6D2F1 (BDF1) mice
Details: endpoint: median survival time, higher = longer survival
Procedure, shortened: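 Mice carrying the transplantable tumour receive compound or vehicle. Survival is followed in each arm, and the treated measure is divided by the vehicle measure.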

[1] = dose: 100.0 mg/kg/injection, schedule: Q04DX003 (ip), vehicle: saline with Tween-80
[2] = dose: 200.0 mg/kg/injection, schedule: Q04DX003 (ip), vehicle: saline with Tween-80
[3] = dose: 400.0 mg/kg/injection, schedule: Q04DX003 (ip), vehicle: saline with Tween-80
[4] = dose: 50.0 mg/kg/injection, schedule: Q01DX009 (ip), vehicle: saline with Tween-80
[5] = dose: 100.0 mg/kg/injection, schedule: Q01DX009 (ip), vehicle: saline with Tween-80
[6] = dose: 200.0 mg/kg/injection, schedule: Q01DX009 (ip), vehicle: saline with Tween-80
[7] = dose: 25.0 mg/kg/injection, schedule: Q01DX009 (ip), vehicle: saline
[8] = dose: 50.0 mg/kg/injection, schedule: Q01DX009 (ip), vehicle: saline
[9] = dose: 100.0 mg/kg/injection, schedule: Q01DX009 (ip), vehicle: saline

With `COc1ccc(C(=O)/C=C/c2ccc(OCc3ccccc3)c(OC)c2)cc1OC` the T/C (dose: 50.0 mg/kg/injection, schedule: Q01DX009 (ip), vehicle: water) was 111 % of control, the T/C (dose: 50.0 mg/kg/injection, schedule: Q04DX003 (ip), vehicle: water) was 101 % of control and the T/C (dose: 100.0 mg/kg/injection, schedule: Q01DX009 (ip), vehicle: water) was 114 % of control. For the same molecule, the T/C (dose: 100.0 mg/kg/injection, schedule: Q04DX003 (ip), vehicle: water) was 94 % of control, the T/C (dose: 200.0 mg/kg/injection, schedule: Q01DX009 (ip), vehicle: water) was 104 % of control and the T/C (dose: 200.0 mg/kg/injection, schedule: Q04DX003 (ip), vehicle: water) was 102 % of control. The T/C (dose: 400.0 mg/kg/injection, schedule: Q01DX009 (ip), vehicle: water) was 114 % of control and the T/C (dose: 400.0 mg/kg/injection, schedule: Q04DX003 (ip), vehicle: water) was 100 % of control.
With `CCCCCCOC(=O)C(O)c1ccccc1` (configuration not stated) the T/C (dose: 50.0 mg/kg/injection, schedule: Q04DX003 (ip), vehicle: saline with Tween-80) was 109 % of control, the T/C [1] was 95 % of control and the T/C [2] was 95 % of control. For the same molecule, the T/C [3] was 100 % of control.
In the case of `O=c1[nH]c(=O)n([C@H]2CCCO2)cc1F`, the T/C (dose: 23.0 mg/kg/injection, schedule: Q01DX009 (ip), vehicle: water) is reported as 89 % of control, the T/C (dose: 39.0 mg/kg/injection, schedule: Q01DX009 (ip), vehicle: water) is reported as 87 % of control and the T/C (dose: 44.0 mg/kg/injection, schedule: Q01DX009 (ip), vehicle: Klucel (hydroxypropylcellulose) (HPC)) is reported as 104 % of control and 108 % of control and 109 % of control. For the same molecule, the T/C (dose: 59.0 mg/kg/injection, schedule: Q01DX009 (ip), vehicle: Klucel (hydroxypropylcellulose) (HPC)) was 100 % of control and 107 % of control and 111 % of control, the T/C (dose: 65.0 mg/kg/injection, schedule: Q01DX009 (ip), vehicle: water) was 99 % of control and the T/C (dose: 65.0 mg/kg/injection, schedule: Q04DX003 (ip), vehicle: water) was 89 % of control. The T/C (dose: 75.0 mg/kg/injection, schedule: Q04DX003 (ip), vehicle: other) was 118 % of control, the T/C (dose: 90.0 mg/kg/injection, schedule: Q01DX009 (ip), vehicle: Klucel (hydroxypropylcellulose) (HPC)) was 87 % of control and 104 % of control and 112 % of control and the T/C (dose: 108.0 mg/kg/injection, schedule: Q01DX009 (ip), vehicle: water) was 101 % of control. For the same molecule, the T/C (dose: 108.0 mg/kg/injection, schedule: Q04DX003 (ip), vehicle: water) was 98 % of control, the T/C (dose: 134.0 mg/kg/injection, schedule: Q01DX009 (ip), vehicle: Klucel (hydroxypropylcellulose) (HPC)) was 108 % of control and 120 % of control (2×) and the T/C (dose: 142.0 mg/kg/injection, schedule: Q04DX003 (ip), vehicle: Klucel (hydroxypropylcellulose) (HPC)) was 103 % of control and 109 % of control and 110 % of control. For the same molecule, the T/C (dose: 150.0 mg/kg/injection, schedule: Q04DX003 (ip), vehicle: other) was 118 % of control, the T/C (dose: 180.0 mg/kg/injection, schedule: Q01DX009 (ip), vehicle: water) was 89 % of control and the T/C (dose: 180.0 mg/kg/injection, schedule: Q04DX003 (ip), vehicle: water) was 96 % of control. For the same molecule, the T/C (dose: 189.0 mg/kg/injection, schedule: Q04DX003 (ip), vehicle: Klucel (hydroxypropylcellulose) (HPC)) was 105 % of control and 113 % of control and 117 % of control, the T/C (dose: 201.0 mg/kg/injection, schedule: Q01DX009 (ip), vehicle: Klucel (hydroxypropylcellulose) (HPC)) was 102 % of control and 111 % of control and the T/C (dose: 288.0 mg/kg/injection, schedule: Q04DX003 (ip), vehicle: Klucel (hydroxypropylcellulose) (HPC)) was 109 % of control and 112 % of control and 118 % of control. The T/C (dose: 300.0 mg/kg/injection, schedule: Q04DX003 (ip), vehicle: other) was 118 % of control, the T/C (dose: 300.0 mg/kg/injection, schedule: Q04DX003 (ip), vehicle: water) was 100 % of control and the T/C (dose: 316.0 mg/kg/injection, schedule: Q01DX001 (ip), vehicle: Klucel (hydroxypropylcellulose) (HPC)) was 104 % of control (2×) and 109 % of control. For the same molecule, the T/C (dose: 421.0 mg/kg/injection, schedule: Q01DX001 (ip), vehicle: Klucel (hydroxypropylcellulose) (HPC)) was 109 % of control and 111 % of control and 123 % of control, the T/C (dose: 430.0 mg/kg/injection, schedule: Q04DX003 (ip), vehicle: Klucel (hydroxypropylcellulose) (HPC)) was 109 % of control and 110 % of control and 113 % of control and the T/C (dose: 500.0 mg/kg/injection, schedule: Q04DX003 (ip), vehicle: water) was 92 % of control. For the same molecule, the T/C (dose: 600.0 mg/kg/injection, schedule: Q04DX003 (ip), vehicle: other) was 95 % of control, the T/C (dose: 641.0 mg/kg/injection, schedule: Q01DX001 (ip), vehicle: Klucel (hydroxypropylcellulose) (HPC)) was 104 % of control and 118 % of control and 124 % of control and the T/C (dose: 645.0 mg/kg/injection, schedule: Q04DX003 (ip), vehicle: Klucel (hydroxypropylcellulose) (HPC)) was 111 % of control and 114 % of control. For the same molecule, the T/C (dose: 957.0 mg/kg/injection, schedule: Q01DX001 (ip), vehicle: Klucel (hydroxypropylcellulose) (HPC)) was 104 % of control and 123 % of control, the T/C (dose: 1200.0 mg/kg/injection, schedule: Q04DX003 (ip), vehicle: other) was 90 % of control and the T/C (dose: 1436.0 mg/kg/injection, schedule: Q01DX001 (ip), vehicle: Klucel (hydroxypropylcellulose) (HPC)) was 105 % of control and 117 % of control.
In the case of `CN1CSC(=S)N(Cc2ccccc2)C1`, the T/C [4] is reported as 90 % of control and the T/C [5] is reported as 90 % of control.
For `c1ccc(C2OC2(c2ccccc2)c2ccccc2)cc1` (configuration not stated), the T/C [1] was 95 % of control, the T/C [2] was 104 % of control and the T/C [3] was 95 % of control.
With `NC(=O)CC(NC(=O)CCl)C(=O)O` (configuration not stated) the T/C [1] was 90 % of control, the T/C [2] was 90 % of control and the T/C [3] was 86 % of control.
In the case of `COc1cc2c(c3c1c(=O)c1cc(OC(C)=O)ccc1n3C)C=CC(C)(C)O2`, the T/C (dose: 10.0 mg/kg/injection, schedule: Q01DX009 (ip), vehicle: Klucel (hydroxypropylcellulose) (HPC)) is reported as 100 % of control, the T/C (dose: 20.0 mg/kg/injection, schedule: Q01DX009 (ip), vehicle: Klucel (hydroxypropylcellulose) (HPC)) is reported as 98 % of control and the T/C (dose: 40.0 mg/kg/injection, schedule: Q01DX009 (ip), vehicle: Klucel (hydroxypropylcellulose) (HPC)) is reported as 106 % of control.
With `Clc1ccc(N=Cc2cccs2)cc1` the T/C [4] was 96 % of control, the T/C [5] was 102 % of control and the T/C [6] was 88 % of control.
`O=C(Nc1ccccc1F)Nc1cc(Cl)ccc1Cl` was tested, and the T/C (dose: 50.0 mg/kg/injection, schedule: Q04DX003 (ip), vehicle: saline sonified) was 90 % of control, the T/C (dose: 100.0 mg/kg/injection, schedule: Q04DX003 (ip), vehicle: saline sonified) was 86 % of control and the T/C (dose: 200.0 mg/kg/injection, schedule: Q04DX003 (ip), vehicle: saline sonified) was 90 % of control.
In the case of `CC(=O)NC(CC(=O)O)C(=O)O` (configuration not stated), the T/C [7] is reported as 95 % of control, the T/C [8] is reported as 95 % of control and the T/C [9] is reported as 105 % of control.
With `Nc1[nH]c(=O)nc2nc[nH]c12` the T/C [7] was 112 % of control, the T/C [8] was 98 % of control and the T/C [9] was 119 % of control.
In the case of `Cc1cc(=O)c2cccc(C)c2[nH]1`, the T/C (dose: 50.0 mg/kg/injection, schedule: Q01DX009 (ip), vehicle: Klucel (hydroxypropylcellulose) (HPC)) is reported as 96 % of control, the T/C (dose: 100.0 mg/kg/injection, schedule: Q01DX009 (ip), vehicle: Klucel (hydroxypropylcellulose) (HPC)) is reported as 96 % of control and the T/C (dose: 100.0 mg/kg/injection, schedule: Q04DX003 (ip), vehicle: Klucel (hydroxypropylcellulose) (HPC)) is reported as 95 % of control. For the same molecule, the T/C (dose: 200.0 mg/kg/injection, schedule: Q01DX009 (ip), vehicle: Klucel (hydroxypropylcellulose) (HPC)) was 92 % of control and the T/C (dose: 200.0 mg/kg/injection, schedule: Q04DX003 (ip), vehicle: Klucel (hydroxypropylcellulose) (HPC)) was 91 % of control.
`O=Cc1ccc2c(c1)OCCOCCOCCOCCO2` was tested, and the T/C [4] was 104 % of control, the T/C [5] was 121 % of control and the T/C [6] was 117 % of control.
With `C[C@]12CC[C@H]3[C@@H](CCC4=CC(=O)CC[C@@]43C)[C@@H]1CC[C@@H]2OC(=O)Cc1ccc(N(CCCl)CCCl)cc1` the T/C (dose: 64.0 mg/kg/injection, schedule: Q01DX009 (ip), vehicle: Klucel (hydroxypropylcellulose) (HPC)) was 104 % of control and 105 % of control, the T/C [5] was 113 % of control and the T/C (dose: 128.0 mg/kg/injection, schedule: Q01DX009 (ip), vehicle: Klucel (hydroxypropylcellulose) (HPC)) was 111 % of control and 123 % of control. The T/C (dose: 256.0 mg/kg/injection, schedule: Q01DX009 (ip), vehicle: Klucel (hydroxypropylcellulose) (HPC)) was 157 % of control, the T/C (dose: 264.0 mg/kg/injection, schedule: Q04DX003 (ip), vehicle: saline with Tween-80) was 120 % of control and the T/C (dose: 400.0 mg/kg/injection, schedule: Q01DX009 (ip), vehicle: saline with Tween-80) was 209 % of control. For the same molecule, the T/C [3] was 154 % of control, the T/C (dose: 512.0 mg/kg/injection, schedule: Q01DX009 (ip), vehicle: Klucel (hydroxypropylcellulose) (HPC)) was 115 % of control and the T/C (dose: 600.0 mg/kg/injection, schedule: Q04DX003 (ip), vehicle: saline with Tween-80) was 200 % of control.

Source: PubChem BioAssay AID328 (DTP/NCI, 2004)
